Source: PMC10022894, “Plant and prokaryotic TIR domains generate distinct cyclic ADPR NADase products” (Science Advances, 2023)

Legend:
Assay type in all cases: biochemical
AbTIR = biological target: T1, AbTIR (Acinetobacter baumannii, UniProt A0A009IHW8); assay: in vitro NADase assay on bead-bound protein, LC-MS; conditions: […] NAD+, ~[…] C, […] h
T1 construct: gene J512_3302; core TIR domain, residues 157-292; N-terminal Strep II and C-terminal 6xHis tags (pET30a+), E. coli BL21(DE3); catalytic E208

BdTIR = biological target: T2, BdTIR (Brachypodium distachyon, UniProt I1GTC2); assay: in vitro NADase assay on bead-bound protein, LC-MS; conditions: […] NAD+, ~[…] C, […] h
T2 construct: gene BRADI_1g24377v3; TIR-only protein; N-terminal Strep II and C-terminal 6xHis tags (pET30a+), E. coli BL21(DE3); catalytic E127
T2 sequence (I1GTC2 1-224): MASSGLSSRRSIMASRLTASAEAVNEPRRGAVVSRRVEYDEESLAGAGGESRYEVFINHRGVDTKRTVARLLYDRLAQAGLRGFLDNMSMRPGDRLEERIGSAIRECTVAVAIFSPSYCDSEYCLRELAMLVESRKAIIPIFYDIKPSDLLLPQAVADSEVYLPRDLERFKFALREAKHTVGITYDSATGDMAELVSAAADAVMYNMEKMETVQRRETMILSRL

ThsA = biological target: T3, ThsA (Bacillus cereus, UniProt J8G6Z1); assay: in vitro NAD+ consumption; conditions: stimulated by NADase products of ThsB-Auto
T3 construct: SIR2-type NADase with C-terminal SLOG domain; in vitro preparation not described in main text

HopAM1 = biological target: T4, HopAM1 (Pseudomonas syringae group genomosp. 3, UniProt Q877R9); assay: in vitro NADase assay on bead-bound protein, LC-MS; conditions: […] NAD+, ~[…] C, […] h
T4 construct: gene hopAM1-1; TIR effector; N-terminal Strep II and C-terminal 6xHis tags (pET30a+), E. coli BL21(DE3)
T4 sequence (Q877R9 whole entry): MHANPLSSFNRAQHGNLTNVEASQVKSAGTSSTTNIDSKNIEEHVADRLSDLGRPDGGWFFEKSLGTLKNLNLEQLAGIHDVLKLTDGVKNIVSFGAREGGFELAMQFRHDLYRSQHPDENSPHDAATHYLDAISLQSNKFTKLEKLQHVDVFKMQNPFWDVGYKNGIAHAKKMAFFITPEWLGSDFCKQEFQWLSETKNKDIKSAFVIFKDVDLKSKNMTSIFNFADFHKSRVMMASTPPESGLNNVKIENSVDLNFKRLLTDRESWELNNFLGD

T1 sequence (A0A009IHW8 134-269): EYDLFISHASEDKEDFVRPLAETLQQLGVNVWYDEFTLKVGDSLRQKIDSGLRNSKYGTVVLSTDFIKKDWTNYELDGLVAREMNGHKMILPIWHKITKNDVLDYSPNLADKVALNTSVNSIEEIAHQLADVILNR
T3 sequence (J8G6Z1 whole entry, the tested form may be a part): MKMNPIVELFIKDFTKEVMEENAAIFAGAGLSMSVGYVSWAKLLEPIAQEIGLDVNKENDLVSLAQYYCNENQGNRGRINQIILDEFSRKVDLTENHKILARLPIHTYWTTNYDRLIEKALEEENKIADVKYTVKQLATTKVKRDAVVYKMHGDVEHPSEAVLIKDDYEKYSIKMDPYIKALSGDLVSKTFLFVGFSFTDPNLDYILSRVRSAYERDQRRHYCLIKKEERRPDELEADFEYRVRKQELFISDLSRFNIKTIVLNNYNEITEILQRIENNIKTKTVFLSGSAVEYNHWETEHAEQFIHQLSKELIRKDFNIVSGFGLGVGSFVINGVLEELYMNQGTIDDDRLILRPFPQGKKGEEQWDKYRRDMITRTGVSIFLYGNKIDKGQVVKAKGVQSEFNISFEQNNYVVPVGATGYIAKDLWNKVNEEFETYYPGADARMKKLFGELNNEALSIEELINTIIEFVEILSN

NC(=O)c1ccc[n+]([C@@H]2O[C@H](COP(=O)(O)OP(=O)(O)OC[C@H]3O[C@@H](n4cnc5c(N)ncnc54)[C@H](O)[C@@H]3O)[C@@H](O)[C@H]2O)c1 [NAD^+]
in vitro NADase assay on bead-bound protein, LC-MS (AbTIR): we compared the in vitro NADase products of ThsB-Auto, BdTIR, AbTIR, and HopAM1
in vitro NADase assay on bead-bound protein, LC-MS (BdTIR): we compared the in vitro NADase products of ThsB-Auto, BdTIR, AbTIR, and HopAM1
in vitro NAD+ consumption (ThsA): NADase products of ThsB-Auto could stimulate NAD^+ consumption by ThsA in vitro
in vitro NADase assay on bead-bound protein, LC-MS (HopAM1): we compared the in vitro NADase products of ThsB-Auto, BdTIR, AbTIR, and HopAM1
